The values that follow come from patent publication US20230414758A1, “CAPSAICIN-DERIVED PHOTOSENSITIZER, AND PREPARATION METHOD AND USE THEREOF” (priority 2022, published 2023).

In one data set the target is T1, TRPV1 protein (Mus musculus, UniProt Q704Y3).
T1 construct: endogenous in cells; host or cells: 4T1 cells
Put plainly: Calcium regulation ability at the cellular level, Fluo-8 AM staining, confocal microscopy. Format: cell-based. Particulars: 4T1 cells. Here is the method: The specific operations were as follows.
A high-glucose DMEM cell culture medium containing 10% fetal bovine serum and 5% double antibodies (the following media all contained 10% fetal bovine serum and 5% double antibodies) was prepared. Triple negative breast cancer 4T1 cells in logarithmic growth phase were seeded in a Confocal cell culture dish at a density of 1.0×10^4 cells/well, and incubated in a cell incubator (37° C., 5% CO2) for 12 hrs. […] The cells were incubated in an incubator for another 12 hrs, and the culture medium was changed after incubation. The irradiation group was irradiated with LED light (660 nm, 20 mW cm^−2) for 15 min (without treatment in the non-irradiation group). After irradiation, the culture medium was discarded. The cells were rinsed three times with PBS, and the rinsed cells were stained (10 min) with a fluorescent dye Fluo-8 AM (50.0 μmol L^−1, 1.0 mL) for intracellular calcium. After staining, the cells were rinsed with PBS, and observed by laser confocal microscopy.

The conditions of data set [1]: reference value used for calculation; cited from earlier work.

T1 sequence (Q704Y3 whole entry): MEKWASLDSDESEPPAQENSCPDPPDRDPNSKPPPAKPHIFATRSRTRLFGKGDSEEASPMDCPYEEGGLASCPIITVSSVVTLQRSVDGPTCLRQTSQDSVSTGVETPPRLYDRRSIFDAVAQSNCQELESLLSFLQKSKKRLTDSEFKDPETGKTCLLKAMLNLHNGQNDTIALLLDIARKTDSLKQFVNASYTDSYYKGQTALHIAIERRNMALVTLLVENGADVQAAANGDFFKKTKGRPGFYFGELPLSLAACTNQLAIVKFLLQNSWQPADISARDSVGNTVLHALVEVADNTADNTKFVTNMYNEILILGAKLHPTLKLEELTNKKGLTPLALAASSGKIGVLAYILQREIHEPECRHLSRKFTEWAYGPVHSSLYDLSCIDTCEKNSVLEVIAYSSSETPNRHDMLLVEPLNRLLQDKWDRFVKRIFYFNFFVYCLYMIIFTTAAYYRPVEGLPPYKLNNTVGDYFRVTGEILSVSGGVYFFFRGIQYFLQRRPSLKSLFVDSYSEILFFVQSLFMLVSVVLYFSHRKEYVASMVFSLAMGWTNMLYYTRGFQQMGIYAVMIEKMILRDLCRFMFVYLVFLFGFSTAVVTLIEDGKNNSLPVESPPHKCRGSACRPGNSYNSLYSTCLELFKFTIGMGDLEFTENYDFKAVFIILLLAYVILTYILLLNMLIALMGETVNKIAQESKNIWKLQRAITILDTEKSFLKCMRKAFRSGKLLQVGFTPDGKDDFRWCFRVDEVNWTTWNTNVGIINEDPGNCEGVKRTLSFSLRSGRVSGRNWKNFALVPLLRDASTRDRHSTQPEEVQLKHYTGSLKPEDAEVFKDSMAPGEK

`COc1cc(CNC(=O)CCCC/C=C/C(C)C)ccc1O` [CAP, capsaicin]: the “change of intracellular calcium fluorescence intensity after irradiation versus before irradiation” value on TRPV1 protein (LED 660 nm, 20 mW cm^−2, 15 min) is listed as “does not change obviously”. The “intracellular calcium fluorescence under non-irradiation and irradiation conditions” value on TRPV1 protein (compared with PBS and BDP groups) is “intense green fluorescence”. As to `[Zn+2].c1ccc2c(c1)-c1nc-2nc2[n-]c(nc3nc([n-]c4nc(n1)-c1ccccc1-4)-c1ccccc1-3)c1ccccc21` [ZnPc, Zinc phthalocyanine], in data set [1], the “singlet oxygen quantum yield of the reference” value was 1.
